According to the NIST ThermoML archive (doi:10.1021/acs.jced.8b00132):
Where “and” joins values, the source holds several entries; their conditions need not be identical. Equal values may be shown once. Numbers after ± are expanded uncertainties.

Settings: transient hot wire

With `O=C(C(F)(F)C(F)(F)F)C(F)(C(F)(F)F)C(F)(F)F` [dodecafluoro-2-methylpentan-3-one] the thermal conductivity (417.43 K, 35735 kPa, Liquid) was 0.06006 ± 0.0012 W/m/K, the thermal conductivity (417.44 K, 35746 kPa, Liquid) was 0.06008 ± 0.0012 W/m/K and the thermal conductivity (417.45 K, 995 kPa, Gas) was 0.022 ± 0.0014 W/m/K. For the same compound, the thermal conductivity (417.46 K, 24856 kPa, Liquid) was 0.05553 ± 0.0011 W/m/K, the thermal conductivity (417.46 K, 24868 kPa, Liquid) was 0.05553 ± 0.0011 W/m/K and the thermal conductivity (417.48 K, 3782 kPa, Liquid) was 0.04235 ± 0.00089 W/m/K. The thermal conductivity (417.49 K, 3785 kPa, Liquid) was 0.04236 ± 0.00089 W/m/K, the thermal conductivity (417.5 K, 788 kPa, Gas) was 0.02105 ± 0.0013 W/m/K and 0.02104 ± 0.0013 W/m/K and the thermal conductivity (417.52 K, 10593 kPa, Liquid) was 0.04792 ± 0.001 W/m/K. The thermal conductivity (417.52 K, 10594 kPa, Liquid) was 0.04785 ± 0.001 W/m/K, the thermal conductivity (417.53 K, 2204 kPa, Liquid) was 0.04067 ± 0.00085 W/m/K and the thermal conductivity (417.53 K, 2206 kPa, Liquid) was 0.04059 ± 0.00085 W/m/K. It also gave a thermal conductivity (417.56 K, 372 kPa, Gas) of 0.02094 ± 0.0013 W/m/K, a thermal conductivity (417.59 K, 16285 kPa, Liquid) of 0.05128 ± 0.0011 W/m/K and a thermal conductivity (417.59 K, 35671 kPa, Liquid) of 0.06014 ± 0.0012 W/m/K. The thermal conductivity (417.59 K, 35701 kPa, Liquid) was 0.06019 ± 0.0012 W/m/K, the thermal conductivity (417.6 K, 591 kPa, Gas) was 0.02077 ± 0.0013 W/m/K and the thermal conductivity (417.6 K, 1024 kPa, Gas) was 0.0225 ± 0.00075 W/m/K. It also gave a thermal conductivity (417.6 K, 16284 kPa, Liquid) of 0.05126 ± 0.0011 W/m/K, a thermal conductivity (417.61 K, 594 kPa, Gas) of 0.02078 ± 0.0013 W/m/K and a thermal conductivity (417.61 K, 6424 kPa, Liquid) of 0.04484 ± 0.00094 W/m/K. The thermal conductivity (417.62 K, 6421 kPa, Liquid) was 0.0448 ± 0.00094 W/m/K, the thermal conductivity (417.65 K, 994 kPa, Gas) was 0.02218 ± 0.0014 W/m/K and the thermal conductivity (417.66 K, 995 kPa, Gas) was 0.02218 ± 0.0014 W/m/K. The thermal conductivity (417.68 K, 785 kPa, Gas) was 0.02107 ± 0.0013 W/m/K, the thermal conductivity (417.7 K, 788 kPa, Gas) was 0.02117 ± 0.0013 W/m/K and the thermal conductivity (417.7 K, 3782 kPa, Liquid) was 0.04218 ± 0.00088 W/m/K and 0.04238 ± 0.00089 W/m/K. The thermal conductivity (417.71 K, 10585 kPa, Liquid) was 0.04785 ± 0.001 W/m/K, the thermal conductivity (417.73 K, 10592 kPa, Liquid) was 0.04786 ± 0.001 W/m/K and the thermal conductivity (417.76 K, 371 kPa, Gas) was 0.02099 ± 0.0013 W/m/K. The thermal conductivity (417.76 K, 372 kPa, Gas) was 0.0209 ± 0.0013 W/m/K, the thermal conductivity (417.82 K, 589 kPa, Gas) was 0.02086 ± 0.0013 W/m/K and the thermal conductivity (417.82 K, 6421 kPa, Liquid) was 0.0448 ± 0.00094 W/m/K. The thermal conductivity (417.84 K, 994 kPa, Gas) was 0.02265 ± 0.0014 W/m/K, the thermal conductivity (417.84 K, 6421 kPa, Liquid) was 0.04481 ± 0.00094 W/m/K and the thermal conductivity (417.85 K, 994 kPa, Gas) was 0.02241 ± 0.0014 W/m/K. It also gave a thermal conductivity (417.88 K, 785 kPa, Gas) of 0.02124 ± 0.0013 W/m/K, a thermal conductivity (417.93 K, 3782 kPa, Liquid) of 0.04241 ± 0.00089 W/m/K and a thermal conductivity (417.93 K, 3784 kPa, Liquid) of 0.04244 ± 0.00089 W/m/K. It also gave a thermal conductivity (417.95 K, 369 kPa, Gas) of 0.02101 ± 0.0013 W/m/K, a thermal conductivity (417.95 K, 370 kPa, Gas) of 0.02093 ± 0.0013 W/m/K and a thermal conductivity (418.05 K, 588 kPa, Gas) of 0.02096 ± 0.0013 W/m/K. For the same compound, the thermal conductivity (418.08 K, 784 kPa, Gas) was 0.02089 ± 0.0013 W/m/K, the thermal conductivity (418.16 K, 367 kPa, Gas) was 0.02097 ± 0.0013 W/m/K and the thermal conductivity (418.16 K, 369 kPa, Gas) was 0.02096 ± 0.0013 W/m/K. For the same compound, the thermal conductivity (418.29 K, 587 kPa, Gas) was 0.02094 ± 0.0013 W/m/K, the thermal conductivity (418.3 K, 587 kPa, Gas) was 0.02092 ± 0.0013 W/m/K and the thermal conductivity (418.46 K, 367 kPa, Gas) was 0.02103 ± 0.0013 W/m/K. For the same compound, the thermal conductivity (418.47 K, 366 kPa, Gas) was 0.02102 ± 0.0013 W/m/K, the thermal conductivity (432.13 K, 1545 kPa, Gas) was 0.02726 ± 0.0017 W/m/K and the thermal conductivity (432.18 K, 1546 kPa, Gas) was 0.02748 ± 0.0017 W/m/K. The thermal conductivity (432.2 K, 1545 kPa, Gas) was 0.02732 ± 0.0017 W/m/K, the thermal conductivity (432.24 K, 1546 kPa, Gas) was 0.02788 ± 0.0018 W/m/K and the thermal conductivity (432.25 K, 1546 kPa, Gas) was 0.02765 ± 0.0018 W/m/K. The thermal conductivity (432.26 K, 1546 kPa, Gas) was 0.0279 ± 0.0018 W/m/K, the thermal conductivity (432.38 K, 2634 kPa, Liquid) was 0.03887 ± 0.00082 W/m/K and the thermal conductivity (432.38 K, 2635 kPa, Liquid) was 0.0388 ± 0.00082 W/m/K. For the same compound, the thermal conductivity (432.42 K, 1424 kPa, Gas) was 0.02465 ± 0.0015 W/m/K, the thermal conductivity (432.43 K, 1423 kPa, Gas) was 0.02466 ± 0.0015 W/m/K and the thermal conductivity (432.46 K, 1706 kPa, Liquid) was 0.03696 ± 0.00079 W/m/K. It also gave a thermal conductivity (432.46 K, 1978 kPa, Liquid) of 0.03766 ± 0.0008 W/m/K, a thermal conductivity (432.47 K, 1706 kPa, Liquid) of 0.03707 ± 0.00079 W/m/K and a thermal conductivity (432.47 K, 1710 kPa, Liquid) of 0.03705 ± 0.00079 W/m/K. The thermal conductivity (432.47 K, 1979 kPa, Liquid) was 0.03775 ± 0.0008 W/m/K, the thermal conductivity (432.52 K, 1423 kPa, Gas) was 0.0248 ± 0.0015 W/m/K and the thermal conductivity (432.52 K, 2633 kPa, Liquid) was 0.03885 ± 0.00082 W/m/K. The thermal conductivity (432.53 K, 1423 kPa, Gas) was 0.02469 ± 0.0015 W/m/K, the thermal conductivity (432.53 K, 2633 kPa, Liquid) was 0.03887 ± 0.00082 W/m/K and the thermal conductivity (432.54 K, 1420 kPa, Gas) was 0.02444 ± 0.0015 W/m/K. For the same compound, the thermal conductivity (432.55 K, 1420 kPa, Gas) was 0.0244 ± 0.0015 W/m/K, the thermal conductivity (432.56 K, 1978 kPa, Liquid) was 0.03769 ± 0.00079 W/m/K and the thermal conductivity (432.57 K, 1705 kPa, Liquid) was 0.03737 ± 0.00079 W/m/K and 0.03712 ± 0.00079 W/m/K. The thermal conductivity (432.57 K, 1979 kPa, Liquid) was 0.0379 ± 0.0008 W/m/K, the thermal conductivity (432.62 K, 1709 kPa, Liquid) was 0.03738 ± 0.00079 W/m/K and the thermal conductivity (432.63 K, 1422 kPa, Gas) was 0.02518 ± 0.0016 W/m/K. The thermal conductivity (432.63 K, 1709 kPa, Liquid) was 0.0377 ± 0.0008 W/m/K, the thermal conductivity (432.65 K, 1419 kPa, Gas) was 0.02476 ± 0.0015 W/m/K and 0.02477 ± 0.0015 W/m/K and the thermal conductivity (432.67 K, 1705 kPa, Liquid) was 0.03805 ± 0.00081 W/m/K. It also gave a thermal conductivity (432.68 K, 1705 kPa, Liquid) of 0.0373 ± 0.00079 W/m/K, a thermal conductivity (432.68 K, 1977 kPa, Liquid) of 0.03782 ± 0.0008 W/m/K and a thermal conductivity (432.68 K, 1978 kPa, Liquid) of 0.03794 ± 0.0008 W/m/K. The thermal conductivity (432.68 K, 2631 kPa, Liquid) was 0.03893 ± 0.00082 W/m/K, the thermal conductivity (432.68 K, 2632 kPa, Liquid) was 0.03891 ± 0.00082 W/m/K and the thermal conductivity (432.69 K, 3940 kPa, Liquid) was 0.04069 ± 0.00085 W/m/K and 0.04067 ± 0.00085 W/m/K.
